Experimental data from PMC9385451 (International Journal for Parasitology: Drugs and Drug …, 2022).

Target: T1, Eimeria tenella aldolase 2 (EtALD2), fructose-1,6-bisphosphate aldolase (Eimeria tenella, UniProt U6KYI1)
T1 sequence (U6KYI1 1-368): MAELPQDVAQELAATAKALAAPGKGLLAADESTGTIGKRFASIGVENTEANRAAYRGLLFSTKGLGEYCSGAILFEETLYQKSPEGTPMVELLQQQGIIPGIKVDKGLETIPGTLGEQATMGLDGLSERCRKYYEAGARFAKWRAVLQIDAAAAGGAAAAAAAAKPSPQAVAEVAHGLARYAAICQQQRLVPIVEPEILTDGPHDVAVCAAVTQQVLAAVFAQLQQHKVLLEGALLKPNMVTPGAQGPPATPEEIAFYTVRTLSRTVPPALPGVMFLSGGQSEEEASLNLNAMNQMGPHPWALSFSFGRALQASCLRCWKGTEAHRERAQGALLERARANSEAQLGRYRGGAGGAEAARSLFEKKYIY
Type: biochemical

Work on `O=c1c(O)c(-c2ccc(O)cc2O)oc2cc(O)cc(O)c12` [morin] yielded an IC50 of 10.4 µM.
